Test results reported in US10555919B2, “Melatonin in autoimmune disease” (The Brigham and Women's Hopsital, Inc., priority 2014, dated 2020).

Key:
[1] = test system: nr1d1 reporter-transfected HEK293 cells; assay: nr1d1 promoter luciferase reporter assay; type: cell-based; conditions: nr1d1 promoter controls luciferase expression
Description: The IL-10 promoter reporter and C-Maf and AhR vectors were previously described (Apetoh et al., 2010), vector expressing ROR-α were purchased from PlasmID at Harvard Medical School. Vectors coding for C/EBPα (44627) and Bmal reporter (46824) were purchased from Addgene. The retrovirus used for nfil3 overexpression in T cells was graciously provided by Laura Hooper (UT Southwestern, TX, USA). The retrovirus used for nr1d1 overexpression in T cells was graciously provided by Bart Staels (Institut Pasteur, Lille, France, […]). The nr1d1 promoter reporter was graciously provide by Vincent Laudent (Ecole Normale Supérieure, Lyon, France).
HEK293 cells were grown in DMEM supplemented with 10% FBS and were transfected with FuGENE HD transfection reagent and 2 μg of each plasmids according the manufacturer's instructions (Roche). Firefly and renilla luciferase activity was analyzed 48 h after transfection and 24 h after treatment with a Dual Luciferase Assay kit (Promega).

human Th1 cells = assay: In vitro human Th1 differentiation; type: cell-based; conditions: 500 ng/ml; IL-12
Method: In vitro human T cell differentiation. For Th17 differentiation, naive CD45RA+ CD4+ T cells were isolated from PBMCs with magnetic beads (Naive Human CD4+ T Cell Isolation Kit II, Miltenyi Biotec) and seeded at a density of 5×10^5 cells/ml in 24-well plates coated with anti-CD3 and (2 μg/ml) and soluble anti-CD28 and cultured in the presence of the following cytokines IL-1β (25 ng/ml), IL-6 (50 ng/ml), and TGF-β1 (2 ng/ml) and neutralizing antibodies to IFN-g ([…]) and IL-4 (10 microgram/ml). Alternatively, Th17 cells were differentiated by using IL-1β (25 ng/ml), IL-6 (50 ng/ml), and IL-23 (50 ng/ml) and neutralizing antibodies to IFN-g ([…]) and IL-4 (10 microgram/ml). For Th1 differentiation naïve CD4+T cells are cultured in the presence of IL-12 (20 ng/ml) and anti-IL-4 (10 μg/ml).

[2] = test system: human CD4+ T cells activated under Tr1 polarizing conditions; assay: In vitro human Tr1 differentiation; type: cell-based; conditions: 500 ng/ml
Description: We then studied the effects of melatonin on human CD4^+ T cells. In addition, we also analyzed the effects of agomelatine, which activates melatonin-dependent signaling (Hickie and Rogers, 2011). Based on the effects of melatonin administration on T cells during EAE, we focused our studies on human Th17 and Tr1 cells. Melatonin and agomelatine reduced the production of IL-17, RORC and IL17A expression by human CD4^+ T cells activated under Th17 polarizing conditions (FIGS. 3a-c and FIG. 8), no effect was detected on the differentiation of human Th1 cells (FIGS. 3d-f). Concomitantly, melatonin and agomelatine increased IL10 expression.

Tr1 cells = assay: In vitro mouse Tr1 cell differentiation; type: cell-based
Method: Naive CD4+ T cells (CD4+CD44loCD62LhiCD25−) were from the spleen and lymph node of C57BL/6 wild-type, MTNR1A−, NFIL3−, REV-ERBα, C/EBPα-deficient or RORα-deficient mice using magnetic beads (CD4+ T cell isolation kit, Miltenyi Biotec). All experiments were started between 7 and 9 am. Cells were activated with plate-bound anti-CD3 (2 μg/ml; 14-0031-86; eBioscience) and anti-CD28 (2 μg/ml; 16-0281-86; eBioscience). Mouse IL-27 (30 ng/ml; 34-8271; Biolegend) was added for the generation of Tr1 cells. IL-6 (30 ng/ml; 406-ML-025; R&D Systems), TGF-β1 (15 ng/ml; 130-095-067; Miltenyi Biotec), anti-IL-4 (2.5 μg/ml; C17.8; Biolegend) and anti-IFN-γ (5 μg/ml; XMG1.2; Biolegend) were added for the generation of Th17 cells. Recombinant mouse IL-23 (30 ng/ml; 1887-ML-010; R&D Systems) was added at day 2. For some experiments IL-6 and […] (10 ng/ml; 401-ML-025; R&D Systems) or TGF-β1 and IL-21 (100 ng/ml; 594-ML-010; R&D Systems) were used in instead for Th17 cell differentiation. IL-12 (30 ng/ml; 419-ML-010; R&D Systems) and anti-IL-4 (2.5 μg/ml; C17.8; Biolegend) were used for the generation of Th1 cells. IL-4 (30 ng/ml; 404-ML-010; R&D Systems) and anti-IFN-γ (5 μg/ml; XMG1.2; Biolegend) was added for the generation of Th2 cells. TGF-β1 (15 ng/ml; 130-095-067; Miltenyi Biotec) was used for the generation of Foxp3+ Tregs. Melatonin (Gador, Argentina), Agomelatin, and CGP-52608 (Sigma-Aldrich) were added at the start of the cultures and at day 2, at a final concentration of 2-20 ng/ml.

Splenocytes = assay: Recall response to MOG35-55 of splenocytes from melatonin-treated mice; type: in vivo
Method: Secreted cytokines were measured in tissue culture supernatants after 72-96 hs by enzyme-linked immunosorbent assay as previously described (Farez et al., 2009). […] The cells were pulsed with [3H]thymidine (1 μCi/well) for the final 24 h. The frequency of T cells producing IL-17 (eBioscience), IFN-γ (BioLegend) or IL-10 (BD Pharmingen) and Foxp3+ T cells (eBioscience) was assessed by flow cytometry. For CFSE-based proliferation assay, CD4+ T cells were labeled with 1 μM CFSE (carboxyfluorescein diacetate succinimidyl ester; Molecular Probes). Data were acquired on an […] (BD Biosciences) or MacsQuants (Miltenyi) and analyzed with FlowJo software (TreeStar). To further characterize the effects of melatonin on the encephalitogenic T-cell response, we analyzed the recall response to MOG35-55. […] Thus, melatonin arrests the encephalitogenic Th17 cell response.

CD4+ T cells = assay: Co-incubation of sorted CD4+ T cells with treatment-switched dendritic cells; type: in vivo; conditions: CD4+ T cells from melatonin-treated mice co-incubated with splenic DCs from control mice
Method: To investigate if melatonin acts directly on T cells or whether it controls the T-cell response indirectly through its effects on antigen presenting cells, we co-incubated sorted CD4^+ T cells from melatonin-treated or control mice with treatment-switched dendritic cells (DCs).

2D2+ transgenic T cells = assay: In vitro activation of naive 2D2+ transgenic T cells / CD4+ T cells (MOG35-55 and DCs or anti-CD3 and anti-CD28); type: cell-based, mice

Compound: COc1ccc2[nH]cc(CCNC(C)=O)c2c1 [Melatonin, N-Acetyl-5-methoxytryptamine]
- luciferase activity [1]: decreased
- differentiation of human Th1 cells (human Th1 cells): no effect
- IL-10 production [2]: increased
- expression of IL-10 and the Tr1-associated molecules il21, ahr and cmaf (Tr1 cells; Tr1 polarizing conditions, melatonin 2 ng/ml): boosted
- suppressive activity of Tr1 cells in vitro (Tr1 cells; co-culture with CFSE-labeled CD4+ T cells, 48 hs): boosted
- proliferative response to MOG35-55 (Splenocytes): diminished
- IFN-γ production (Splenocytes; recall to MOG35-55): no significant effects
- IL-10 production (Splenocytes; recall to MOG35-55): increased
- IL-17 production (Splenocytes; recall to MOG35-55): reduced
- IL-10 production (CD4+ T cells): increased
- proliferation and IL-17 secretion (CD4+ T cells): decreased
- ability of melatonin-pretreated DCs to activate 2D2+ T cells (2D2+ transgenic T cells; in the presence of MOG35-55): did not affect
- apoptosis in CD4+ T cells (annexin V and propidium iodide staining, Bcl-xl levels) (2D2+ transgenic T cells; stimulated with antibodies against CD3 and CD28, 3 days): did not increase
- in vitro activation of naive 2D2+ transgenic T cells (2D2+ transgenic T cells; with MOG35-55 and DCs or with antibodies to CD3 and CD28 in the absence of DCs): suppressed
